Legend:
[1] = tested on: JNK and p38 isoforms; design: method as in Tsai et al., 2008; Bollag et al., 2010; conditions: ref Tsai et al., 2008; Bollag et al., 2010; cited from earlier work
[2] = molecular target: T1, MLK1 (MAP3K9) (Homo sapiens, UniProt P80192); experiment: Quantitative competitive binding assay (KINOMEscan); conditions: for IC50: estimated Kd, averaged pointwise estimates, transformed Hill equation, read-out: Calculated estimate of IC50; for remaining binding at 0.05 µM: read-out: Percent control (50 nM); for remaining binding at 0.2 µM: read-out: Percent control (200 nM); for remaining binding at 1 µM: read-out: Percent control (1000 nM); for remaining binding at 10 µM: read-out: Percent control (10 μM)
T1 construct: purchased KINOMEscan (DiscoveRx), San Diego, CA

[3] = molecular target: BRK (PTK6) (Homo sapiens, UniProt Q13882); experiment: as above; conditions: for IC50: estimated Kd, averaged pointwise estimates, transformed Hill equation, read-out: Calculated estimate of IC50; for remaining binding at 0.05 µM: read-out: Percent control (50 nM); for remaining binding at 0.2 µM: read-out: Percent control (200 nM); for remaining binding at 1 µM: read-out: Percent control (1000 nM); for remaining binding at 10 µM: read-out: Percent control (10 μM)
[4] = molecular target: T2, TAK1 (MAP3K7) (Homo sapiens, UniProt O43318); experiment: as above; conditions: for remaining binding at 0.05 µM: read-out: Percent control (50 nM); for remaining binding at 0.2 µM: read-out: Percent control (200 nM); for remaining binding at 1 µM: read-out: Percent control (1000 nM); for remaining binding at 10 µM: read-out: Percent control (10 μM)
T2 construct: purchased KINOMEscan (DiscoveRx), San Diego, CA

[5] = tested on: phospho-MKK4 and phospho-MKK7; experiment: Western blot, UV-induced phosphorylation of MKK4 and MKK7; conditions: cSCC cell lines, HaCaT, NHEK; 1 μM
[6] = molecular target: T3, HPK1 (MAP4K1) (Homo sapiens, UniProt Q92918); experiment: Quantitative competitive binding assay (KINOMEscan); conditions: for remaining binding at 0.05 µM: read-out: Percent control (50 nM); for remaining binding at 0.2 µM: read-out: Percent control (200 nM); for remaining binding at 1 µM: read-out: Percent control (1000 nM); for remaining binding at 10 µM: read-out: Percent control (10 μM)
T3 construct: purchased KINOMEscan (DiscoveRx), San Diego, CA

[7] = molecular target: T4, TAOK1 (Homo sapiens, UniProt Q7L7X3); experiment: as above; conditions: for remaining binding at 0.2 µM: read-out: Percent control (200 nM); for remaining binding at 1 µM: read-out: Percent control (1000 nM); for remaining binding at 10 µM: read-out: Percent control (10 μM)
T4 construct: purchased KINOMEscan (DiscoveRx), San Diego, CA
T4 sequence (Q7L7X3 1-1001): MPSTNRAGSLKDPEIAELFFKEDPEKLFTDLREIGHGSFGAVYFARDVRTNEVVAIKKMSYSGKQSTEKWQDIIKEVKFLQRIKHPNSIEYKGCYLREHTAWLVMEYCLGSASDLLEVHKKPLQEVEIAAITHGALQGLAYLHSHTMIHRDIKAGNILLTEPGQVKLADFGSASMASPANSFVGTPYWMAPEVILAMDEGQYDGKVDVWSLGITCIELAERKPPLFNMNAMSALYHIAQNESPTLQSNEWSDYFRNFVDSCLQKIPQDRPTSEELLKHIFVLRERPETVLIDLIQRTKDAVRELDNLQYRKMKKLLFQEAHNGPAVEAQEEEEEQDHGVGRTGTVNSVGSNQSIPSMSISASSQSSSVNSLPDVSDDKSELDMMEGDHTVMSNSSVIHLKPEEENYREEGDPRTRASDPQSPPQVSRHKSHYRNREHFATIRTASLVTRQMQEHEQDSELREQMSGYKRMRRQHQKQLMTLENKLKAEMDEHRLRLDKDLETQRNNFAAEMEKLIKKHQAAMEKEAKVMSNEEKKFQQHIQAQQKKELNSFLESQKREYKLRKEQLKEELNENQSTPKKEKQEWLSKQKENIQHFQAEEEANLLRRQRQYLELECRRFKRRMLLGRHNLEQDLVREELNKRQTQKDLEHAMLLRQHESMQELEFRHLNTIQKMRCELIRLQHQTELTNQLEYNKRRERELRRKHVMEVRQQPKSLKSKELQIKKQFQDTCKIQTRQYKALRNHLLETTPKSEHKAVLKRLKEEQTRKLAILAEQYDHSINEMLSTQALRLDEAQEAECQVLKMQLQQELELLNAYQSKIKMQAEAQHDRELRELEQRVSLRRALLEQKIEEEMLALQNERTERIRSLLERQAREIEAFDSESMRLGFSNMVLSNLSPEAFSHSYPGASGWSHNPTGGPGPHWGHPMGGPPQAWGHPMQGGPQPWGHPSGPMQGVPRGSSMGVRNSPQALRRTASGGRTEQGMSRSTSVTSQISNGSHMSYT

[8] = molecular target: T5, PAK1 (Homo sapiens, UniProt Q13153); experiment: as above; conditions: for remaining binding at 0.05 µM: read-out: Percent control (50 nM); for remaining binding at 0.2 µM: read-out: Percent control (200 nM); for remaining binding at 1 µM: read-out: Percent control (1000 nM); for remaining binding at 10 µM: read-out: Percent control (10 μM)
T5 construct: purchased KINOMEscan (DiscoveRx), San Diego, CA

[9] = molecular target: T6, LZK (MAP3K13) (Homo sapiens, UniProt O43283); experiment: as above; conditions: for remaining binding at 0.05 µM: read-out: Percent control (50 nM); for remaining binding at 0.2 µM: read-out: Percent control (200 nM); for remaining binding at 1 µM: read-out: Percent control (1000 nM); for remaining binding at 10 µM: read-out: Percent control (10 μM)
T6 construct: purchased KINOMEscan (DiscoveRx), San Diego, CA
T6 sequence (O43283 1-966): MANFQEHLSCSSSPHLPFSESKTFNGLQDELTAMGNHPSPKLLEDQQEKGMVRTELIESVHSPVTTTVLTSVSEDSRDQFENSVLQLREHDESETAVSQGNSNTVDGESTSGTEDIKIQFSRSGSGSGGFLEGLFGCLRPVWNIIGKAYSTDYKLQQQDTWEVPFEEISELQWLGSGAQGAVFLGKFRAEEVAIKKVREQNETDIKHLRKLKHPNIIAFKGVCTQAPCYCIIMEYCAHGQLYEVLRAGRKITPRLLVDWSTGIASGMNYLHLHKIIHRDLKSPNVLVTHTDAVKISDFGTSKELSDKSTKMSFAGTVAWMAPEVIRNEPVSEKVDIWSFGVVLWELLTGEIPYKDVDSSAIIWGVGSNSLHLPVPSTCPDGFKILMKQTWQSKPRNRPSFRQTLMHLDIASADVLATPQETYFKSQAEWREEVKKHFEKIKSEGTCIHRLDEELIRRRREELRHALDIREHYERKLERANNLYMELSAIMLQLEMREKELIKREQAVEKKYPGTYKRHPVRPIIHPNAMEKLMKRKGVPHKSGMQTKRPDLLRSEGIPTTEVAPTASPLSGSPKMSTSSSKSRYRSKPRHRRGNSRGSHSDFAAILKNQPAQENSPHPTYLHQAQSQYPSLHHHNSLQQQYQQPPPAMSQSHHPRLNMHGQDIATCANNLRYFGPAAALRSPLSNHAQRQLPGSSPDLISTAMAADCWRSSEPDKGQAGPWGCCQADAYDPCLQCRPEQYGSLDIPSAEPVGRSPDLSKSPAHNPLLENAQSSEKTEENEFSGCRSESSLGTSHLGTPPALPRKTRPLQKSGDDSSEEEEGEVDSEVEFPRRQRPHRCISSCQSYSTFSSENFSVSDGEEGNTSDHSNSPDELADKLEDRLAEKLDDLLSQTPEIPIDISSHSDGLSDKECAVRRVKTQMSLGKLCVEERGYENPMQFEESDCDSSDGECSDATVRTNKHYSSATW

T1 sequence (P80192 whole entry): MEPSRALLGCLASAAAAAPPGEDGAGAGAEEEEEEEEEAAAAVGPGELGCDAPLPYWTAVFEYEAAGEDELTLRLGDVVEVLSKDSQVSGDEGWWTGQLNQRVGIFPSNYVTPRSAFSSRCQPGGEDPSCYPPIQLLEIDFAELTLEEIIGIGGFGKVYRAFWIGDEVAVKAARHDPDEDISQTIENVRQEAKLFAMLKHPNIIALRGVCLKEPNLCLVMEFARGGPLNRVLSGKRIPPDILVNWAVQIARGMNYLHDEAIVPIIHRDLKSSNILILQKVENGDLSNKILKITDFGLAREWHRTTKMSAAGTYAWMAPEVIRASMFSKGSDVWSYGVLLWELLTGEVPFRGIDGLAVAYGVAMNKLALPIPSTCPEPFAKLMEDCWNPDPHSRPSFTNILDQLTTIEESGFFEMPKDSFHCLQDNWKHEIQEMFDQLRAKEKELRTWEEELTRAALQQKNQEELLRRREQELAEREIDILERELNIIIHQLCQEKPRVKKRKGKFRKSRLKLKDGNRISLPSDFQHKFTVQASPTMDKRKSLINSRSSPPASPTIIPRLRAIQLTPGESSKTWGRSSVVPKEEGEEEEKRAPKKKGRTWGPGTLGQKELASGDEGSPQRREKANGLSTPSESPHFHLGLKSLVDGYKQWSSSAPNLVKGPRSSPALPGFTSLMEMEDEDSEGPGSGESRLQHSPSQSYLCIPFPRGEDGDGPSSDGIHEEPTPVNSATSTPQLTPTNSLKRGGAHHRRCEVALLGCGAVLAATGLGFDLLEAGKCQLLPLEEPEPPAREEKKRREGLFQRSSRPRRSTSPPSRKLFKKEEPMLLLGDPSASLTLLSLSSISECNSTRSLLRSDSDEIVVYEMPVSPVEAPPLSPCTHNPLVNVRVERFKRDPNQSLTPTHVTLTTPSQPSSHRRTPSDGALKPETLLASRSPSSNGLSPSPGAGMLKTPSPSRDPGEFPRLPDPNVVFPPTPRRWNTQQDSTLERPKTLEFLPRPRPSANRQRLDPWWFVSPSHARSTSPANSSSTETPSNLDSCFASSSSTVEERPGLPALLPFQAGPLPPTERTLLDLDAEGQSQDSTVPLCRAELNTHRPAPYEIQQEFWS
T5 sequence (Q13153 whole entry): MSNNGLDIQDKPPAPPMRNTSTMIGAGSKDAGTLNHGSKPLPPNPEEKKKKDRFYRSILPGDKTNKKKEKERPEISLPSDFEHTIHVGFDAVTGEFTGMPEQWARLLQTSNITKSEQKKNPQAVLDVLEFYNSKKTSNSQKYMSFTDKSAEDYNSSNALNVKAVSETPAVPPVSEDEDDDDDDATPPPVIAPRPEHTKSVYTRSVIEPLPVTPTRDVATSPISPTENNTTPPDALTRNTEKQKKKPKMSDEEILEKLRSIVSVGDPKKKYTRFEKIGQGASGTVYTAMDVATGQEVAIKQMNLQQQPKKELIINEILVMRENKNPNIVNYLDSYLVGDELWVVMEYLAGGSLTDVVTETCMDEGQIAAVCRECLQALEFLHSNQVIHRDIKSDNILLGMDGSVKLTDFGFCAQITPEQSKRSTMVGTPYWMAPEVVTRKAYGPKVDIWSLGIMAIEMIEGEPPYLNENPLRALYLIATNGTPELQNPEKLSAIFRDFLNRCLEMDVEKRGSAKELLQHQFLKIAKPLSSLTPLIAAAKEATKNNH
T2 sequence (O43318 whole entry): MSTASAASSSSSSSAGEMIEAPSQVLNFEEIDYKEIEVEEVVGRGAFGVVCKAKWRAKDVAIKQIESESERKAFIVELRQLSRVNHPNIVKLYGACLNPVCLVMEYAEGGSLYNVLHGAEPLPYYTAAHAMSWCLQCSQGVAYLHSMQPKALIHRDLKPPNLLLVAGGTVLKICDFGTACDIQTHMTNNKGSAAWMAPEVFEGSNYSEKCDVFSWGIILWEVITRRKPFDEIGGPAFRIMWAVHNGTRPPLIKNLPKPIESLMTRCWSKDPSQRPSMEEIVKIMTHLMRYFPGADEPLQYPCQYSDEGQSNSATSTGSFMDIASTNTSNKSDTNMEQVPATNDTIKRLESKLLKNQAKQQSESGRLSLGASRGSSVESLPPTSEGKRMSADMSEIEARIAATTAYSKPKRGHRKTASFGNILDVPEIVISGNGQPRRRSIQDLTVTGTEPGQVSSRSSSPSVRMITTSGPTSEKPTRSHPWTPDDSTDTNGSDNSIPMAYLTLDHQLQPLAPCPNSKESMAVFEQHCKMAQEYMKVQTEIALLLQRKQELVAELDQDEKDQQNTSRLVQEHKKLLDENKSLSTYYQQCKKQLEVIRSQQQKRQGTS
Chain of BRK (PTK6) (Q13882 whole entry): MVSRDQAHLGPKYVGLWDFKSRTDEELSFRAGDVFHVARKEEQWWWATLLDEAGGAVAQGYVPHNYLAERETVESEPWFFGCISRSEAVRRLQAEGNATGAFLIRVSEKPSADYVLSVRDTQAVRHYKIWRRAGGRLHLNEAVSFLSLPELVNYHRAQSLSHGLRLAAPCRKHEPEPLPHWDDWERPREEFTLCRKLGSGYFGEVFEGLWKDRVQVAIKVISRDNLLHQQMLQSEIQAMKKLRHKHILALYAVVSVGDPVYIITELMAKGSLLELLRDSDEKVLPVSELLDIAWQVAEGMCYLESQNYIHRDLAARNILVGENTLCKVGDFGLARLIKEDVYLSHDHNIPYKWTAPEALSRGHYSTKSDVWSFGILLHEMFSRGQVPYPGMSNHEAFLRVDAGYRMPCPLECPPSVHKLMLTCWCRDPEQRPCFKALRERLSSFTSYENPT
T3 sequence (Q92918 whole entry): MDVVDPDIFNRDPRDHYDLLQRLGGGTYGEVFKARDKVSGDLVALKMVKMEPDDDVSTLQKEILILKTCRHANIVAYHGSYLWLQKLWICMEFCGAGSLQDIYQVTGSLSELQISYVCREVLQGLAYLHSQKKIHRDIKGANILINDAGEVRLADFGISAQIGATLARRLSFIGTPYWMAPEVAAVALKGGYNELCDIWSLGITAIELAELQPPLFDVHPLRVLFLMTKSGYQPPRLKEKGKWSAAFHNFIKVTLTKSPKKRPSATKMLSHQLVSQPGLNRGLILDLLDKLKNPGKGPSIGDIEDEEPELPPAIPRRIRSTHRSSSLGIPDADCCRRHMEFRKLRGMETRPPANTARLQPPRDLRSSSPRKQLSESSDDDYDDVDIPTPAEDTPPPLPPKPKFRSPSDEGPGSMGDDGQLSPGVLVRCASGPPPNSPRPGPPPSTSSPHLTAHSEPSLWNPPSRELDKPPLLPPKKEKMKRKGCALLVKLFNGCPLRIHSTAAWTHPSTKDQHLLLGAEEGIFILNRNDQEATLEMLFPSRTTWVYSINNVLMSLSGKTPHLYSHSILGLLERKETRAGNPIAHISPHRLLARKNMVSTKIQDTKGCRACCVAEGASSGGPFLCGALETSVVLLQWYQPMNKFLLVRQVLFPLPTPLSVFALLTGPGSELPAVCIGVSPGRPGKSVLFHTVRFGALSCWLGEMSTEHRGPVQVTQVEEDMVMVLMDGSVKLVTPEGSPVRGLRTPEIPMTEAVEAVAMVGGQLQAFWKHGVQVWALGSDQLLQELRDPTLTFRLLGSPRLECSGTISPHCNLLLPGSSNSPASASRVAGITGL

| Structure (SMILES) | direct inhibition of JNK and p38 isoforms [1] | IC50 [2] [µM] | remaining binding at 0.05 µM [2] [%] | remaining binding at 0.2 µM [2] [%] | remaining binding at 1 µM [2] [%] | remaining binding at 10 µM [2] [%] | IC50 [3] [µM] | remaining binding at 0.05 µM [3] [%] | remaining binding at 0.2 µM [3] [%] | remaining binding at 1 µM [3] [%] | remaining binding at 10 µM [3] [%] | remaining binding at 0.05 µM [4] [%] | remaining binding at 0.2 µM [4] [%] | remaining binding at 1 µM [4] [%] | remaining binding at 10 µM [4] [%] | UV-induced phosphorylation of MKK4 and MKK7 [5] | remaining binding at 0.05 µM [6] [%] | remaining binding at 0.2 µM [6] [%] | remaining binding at 1 µM [6] [%] | remaining binding at 10 µM [6] [%] | also measured |
| --- | --- | --- | --- | --- | --- | --- | --- | --- | --- | --- | --- | --- | --- | --- | --- | --- | --- | --- | --- | --- | --- |
| CCCS(=O)(=O)Nc1ccc(F)c(C(=O)c2c[nH]c3ncc(Cl)cc23)c1F [PLX4720] | not significantly inhibited | > 10 | 100 | 100 | 100 | 100 | 0.0304 | 47 | 14 | 2.4 | 0.2 | 90 | 88 | 85 | 49 | inhibited | 100 | 100 | 100 | 47 | IC50 ([7]; estimated Kd, averaged pointwise estimates, transformed Hill equation, read-out: Calculated estimate of IC50): 7.53 µM; remaining binding at 0.05 µM ([7]; read-out: Percent control (50 nM)): 87%; remaining binding at 0.2 µM [7]: 94%; remaining binding at 1 µM [7]: 89%; remaining binding at 10 µM [7]: 65%; remaining binding at 0.05 µM [8]: 93%; remaining binding at 0.2 µM [8]: 97%; remaining binding at 1 µM [8]: 83%; remaining binding at 10 µM [8]: 22%; remaining binding at 0.05 µM [9]: 94%; remaining binding at 0.2 µM [9]: 100%; remaining binding at 1 µM [9]: 96%; remaining binding at 10 µM [9]: 75% |
| CCCS(=O)(=O)Nc1ccc(F)c(C(=O)c2c[nH]c3ncc(-c4ccc(Cl)cc4)cc23)c1F [vemurafenib] | not significantly inhibited | 14 | 100 | 93 | 97 | 41 | 0.068 | 63 | 28 | 6.9 | 0.35 | 93 | 88 | 86 | 88 | suppressed | 95 | 88 | 67 | 15 | remaining binding at 0.2 µM [7]: 100%; remaining binding at 1 µM [7]: 97%; remaining binding at 10 µM [7]: 79%; remaining binding at 0.05 µM [8]: 99%; remaining binding at 0.2 µM [8]: 98%; remaining binding at 1 µM [8]: 91%; remaining binding at 10 µM [8]: 46%; remaining binding at 0.05 µM [9]: 100%; remaining binding at 0.2 µM [9]: 99%; remaining binding at 1 µM [9]: 93%; remaining binding at 10 µM [9]: 74% |

Reference: paper PMC3814616, “BRAF inhibitors suppress apoptosis through off-target inhibition of JNK signaling” (eLife, 2013)
